# In PubChem BioAssay (NCI):
#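 A five-concentration, 48-hour dose response in 96-well plates underlies each endpoint, interpolated linearly between surrounding concentrations. GI50: concentration for 50% inhibition of growth. Definition used: TGI = concentration required for complete inhibition of growth.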
# Columns and labels:
# Assay in all cases: growth of human tumour cells (NCI), 48 h
# SW-620 colon = test system: SW-620 colon
# UACC-62 melanoma = test system: UACC-62 melanoma
# SNB-19 CNS = test system: SNB-19 CNS
# DU-145 prostate = test system: DU-145 prostate
# CCRF-CEM leukemia = test system: CCRF-CEM leukemia
# OVCAR-3 ovarian = test system: OVCAR-3 ovarian
# A498 renal = test system: A498 renal
# MALME-3M melanoma = test system: MALME-3M melanoma
# HOP-92 NSCLC = test system: HOP-92 NSCLC
# IGROV1 ovarian = test system: IGROV1 ovarian
# ACHN renal = test system: ACHN renal
# HOP-62 NSCLC = test system: HOP-62 NSCLC
# HCT-15 colon = test system: HCT-15 colon
# HT29 colon = test system: HT29 colon
# CAKI-1 renal = test system: CAKI-1 renal
# HS 578T breast = test system: HS 578T breast
# 786-0 renal = test system: 786-0 renal
# T-47D breast = test system: T-47D breast
# K-562 leukemia = test system: K-562 leukemia
# TK-10 renal = test system: TK-10 renal
# EKVX NSCLC = test system: EKVX NSCLC
# SF-268 CNS = test system: SF-268 CNS
# SN12C renal = test system: SN12C renal
# SK-MEL-28 melanoma = test system: SK-MEL-28 melanoma
# BT-549 breast = test system: BT-549 breast
# NCI-H23 lung = test system: NCI-H23 lung
# OVCAR-8 ovarian = test system: OVCAR-8 ovarian
# SK-MEL-5 melanoma = test system: SK-MEL-5 melanoma
# OVCAR-4 ovarian = test system: OVCAR-4 ovarian
# NCI-H226 lung = test system: NCI-H226 lung
# SF-295 CNS = test system: SF-295 CNS
# LOX IMVI melanoma = test system: LOX IMVI melanoma
# SK-OV-3 ovarian = test system: SK-OV-3 ovarian
# MOLT-4 leukemia = test system: MOLT-4 leukemia
# SK-MEL-2 melanoma = test system: SK-MEL-2 melanoma
# MDA-MB-231 breast = test system: MDA-MB-231 breast
# NCI-H460 lung = test system: NCI-H460 lung
# M14 melanoma = test system: M14 melanoma
# UACC-257 melanoma = test system: UACC-257 melanoma
# HCC-2998 colon = test system: HCC-2998 colon
# OVCAR-5 ovarian = test system: OVCAR-5 ovarian
# U251 CNS = test system: U251 CNS
# RXF 393 renal = test system: RXF 393 renal
# KM12 colon = test system: KM12 colon
# NCI-H522 lung = test system: NCI-H522 lung
# A549 NSCLC = test system: A549 NSCLC
# SF-539 CNS = test system: SF-539 CNS
# MDA-MB-435 = test system: MDA-MB-435
# COLO 205 colon = test system: COLO 205 colon
# HL-60(TB) leukemia = test system: HL-60(TB) leukemia
# NCI/ADR-RES ovarian = test system: NCI/ADR-RES ovarian
# SR leukemia = test system: SR leukemia
# UO-31 renal = test system: UO-31 renal
# MCF7 breast = test system: MCF7 breast
# HCT-116 colon = test system: HCT-116 colon
# PC-3 prostate = test system: PC-3 prostate
smiles,measurement,setting,value
CC1=CC[C@@H]2C(C)(C)[C@@H](O)CC[C@@]2(C)[C@@H]1COc1ccc2ccc(=O)oc2c1,GI50,SW-620 colon,9.94 µM
same,TGI,SW-620 colon,27.2 µM
same,GI50,UACC-62 melanoma,3.52 µM
same,TGI,UACC-62 melanoma,14.5 µM
same,GI50,SNB-19 CNS,14.3 µM
same,TGI,SNB-19 CNS,42.9 µM
same,GI50,DU-145 prostate,5.39 µM
same,TGI,DU-145 prostate,17.8 µM
same,GI50,CCRF-CEM leukemia,3.39 µM
same,TGI,CCRF-CEM leukemia,19.9 µM
same,GI50,OVCAR-3 ovarian,4.34 µM
same,TGI,OVCAR-3 ovarian,16 µM
same,GI50,A498 renal,0.905 µM
same,TGI,A498 renal,19.9 µM
same,GI50,MALME-3M melanoma,8.04 µM
same,TGI,MALME-3M melanoma,22.4 µM
same,GI50,HOP-92 NSCLC,3.83 µM
same,TGI,HOP-92 NSCLC,18.2 µM
same,GI50,IGROV1 ovarian,6.03 µM
same,TGI,IGROV1 ovarian,22 µM
same,GI50,ACHN renal,5.11 µM
same,TGI,ACHN renal,19.6 µM
same,GI50,HOP-62 NSCLC,6.84 µM
same,TGI,HOP-62 NSCLC,26.1 µM
same,GI50,HCT-15 colon,3.6 µM
same,TGI,HCT-15 colon,15.8 µM
same,GI50,HT29 colon,9.83 µM
same,TGI,HT29 colon,44.6 µM
same,GI50,CAKI-1 renal,4.11 µM
same,TGI,CAKI-1 renal,20.9 µM
same,GI50,HS 578T breast,3.29 µM
same,TGI,HS 578T breast,23.4 µM
same,GI50,786-0 renal,13 µM
same,TGI,786-0 renal,28 µM
same,GI50,T-47D breast,2.27 µM
same,TGI,T-47D breast,7.14 µM
same,GI50,K-562 leukemia,3.28 µM
same,TGI,K-562 leukemia,27.5 µM
same,GI50,TK-10 renal,12.5 µM
same,TGI,TK-10 renal,26.4 µM
same,GI50,EKVX NSCLC,10.3 µM
same,TGI,EKVX NSCLC,26.7 µM
same,GI50,SF-268 CNS,6.5 µM
same,TGI,SF-268 CNS,26.3 µM
same,GI50,SN12C renal,4.77 µM
same,TGI,SN12C renal,22.7 µM
same,GI50,SK-MEL-28 melanoma,11.8 µM
same,TGI,SK-MEL-28 melanoma,26.7 µM
same,GI50,BT-549 breast,2.9 µM
same,TGI,BT-549 breast,8.23 µM
same,GI50,NCI-H23 lung,10.8 µM
same,TGI,NCI-H23 lung,33 µM
same,GI50,OVCAR-8 ovarian,3.77 µM
same,TGI,OVCAR-8 ovarian,17.2 µM
same,GI50,SK-MEL-5 melanoma,3.48 µM
same,TGI,SK-MEL-5 melanoma,12.7 µM
same,GI50,OVCAR-4 ovarian,3.66 µM
same,TGI,OVCAR-4 ovarian,12.7 µM
same,GI50,NCI-H226 lung,4.28 µM
same,TGI,NCI-H226 lung,19.8 µM
same,GI50,SF-295 CNS,10.8 µM
same,TGI,SF-295 CNS,23.1 µM
same,GI50,LOX IMVI melanoma,4.77 µM
same,TGI,LOX IMVI melanoma,19 µM
same,GI50,SK-OV-3 ovarian,15.5 µM
same,TGI,SK-OV-3 ovarian,32.3 µM
same,GI50,MOLT-4 leukemia,3.14 µM
same,TGI,MOLT-4 leukemia,15.7 µM
same,GI50,SK-MEL-2 melanoma,5.49 µM
same,TGI,SK-MEL-2 melanoma,21.9 µM
same,GI50,MDA-MB-231 breast,13.9 µM
same,TGI,MDA-MB-231 breast,43.3 µM
same,GI50,NCI-H460 lung,7.68 µM
same,TGI,NCI-H460 lung,25.7 µM
same,GI50,M14 melanoma,7.2 µM
same,TGI,M14 melanoma,21.3 µM
same,GI50,UACC-257 melanoma,12.4 µM
same,TGI,UACC-257 melanoma,26.2 µM
same,GI50,HCC-2998 colon,12.7 µM
same,TGI,HCC-2998 colon,27.4 µM
same,GI50,OVCAR-5 ovarian,16.6 µM
same,TGI,OVCAR-5 ovarian,42.3 µM
same,GI50,U251 CNS,8.82 µM
same,TGI,U251 CNS,27.9 µM
same,GI50,RXF 393 renal,13.2 µM
same,TGI,RXF 393 renal,35.3 µM
same,GI50,KM12 colon,4.18 µM
same,TGI,KM12 colon,15.7 µM
same,GI50,NCI-H522 lung,3.81 µM
same,TGI,NCI-H522 lung,22.1 µM
same,GI50,A549 NSCLC,5.68 µM
same,TGI,A549 NSCLC,22.8 µM
same,GI50,SF-539 CNS,12.3 µM
same,TGI,SF-539 CNS,28.5 µM
same,GI50,MDA-MB-435,10.3 µM
same,TGI,MDA-MB-435,23.9 µM
same,GI50,COLO 205 colon,5.35 µM
same,TGI,COLO 205 colon,23.6 µM
same,GI50,HL-60(TB) leukemia,3.27 µM
same,TGI,HL-60(TB) leukemia,14 µM
same,GI50,NCI/ADR-RES ovarian,3.22 µM
same,TGI,NCI/ADR-RES ovarian,12.7 µM
same,GI50,SR leukemia,7.92 µM
same,TGI,SR leukemia,42 µM
same,GI50,UO-31 renal,2.99 µM
same,TGI,UO-31 renal,13.1 µM
same,GI50,MCF7 breast,7.3 µM
same,TGI,MCF7 breast,27 µM
same,GI50,HCT-116 colon,4.6 µM
same,TGI,HCT-116 colon,18.7 µM
same,GI50,PC-3 prostate,3.28 µM
same,TGI,PC-3 prostate,15.9 µM
